According to the supplement of paper PMC11451515:

What was measured:
Conditions in all cases: 48 h
[1] = system: SEM cells; assay: cell viability relative to DMSO control; higher = less cytotoxic
Procedure, shortened: (§1)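 Leukemia cells (NOMO1 or SEM, 500 cells/well; P12-Ichikawa, 1000 cells/well) were seeded in 5 μl in 1536-well plates after at least four passages of adaptation to each medium. They received library compounds in DMSO by pin dosing, 11 threefold points from 47 μM to 0.79 nM. Luminescence with CellTiter-Glo One was read after 48 h at 37°C. Viability is stated per plate relative to DMSO wells, with cell-free wells as background.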

[2] = system: NOMO1; assay: as above
Procedure, shortened: as §1

[3] = system: P12-Ichikawa; assay: as above
Procedure, shortened: as §1

[4] = system: NOMO1; assay: AUC of viability dose-response curve (% viability x log10 dose units); higher = less sensitive
Procedure, shortened: (§2)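 Leukemia cells adapted to each medium were seeded in 1536-well plates (500 or 1000 cells/well) and given library compounds in DMSO for 48 h at 37°C. The 11 threefold doses spanned 47 μM to 0.79 nM, and CellTiter-Glo One luminescence was normalised per plate to DMSO and cell-free wells before four-parameter log-logistic fitting on log10 dose. Area under the curve was integrated with the trapezoidal rule, scaling curves above full viability and removing curves that failed quality control.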

[5] = system: P12-Ichikawa; assay: as above
Procedure, shortened: as §2

[6] = system: SEM cells; assay: as above
Procedure, shortened: as §2

COc1ccc(C(=O)CC(=O)c2ccc(C(C)(C)C)cc2)cc1
cell viability [%]
Conditions	[1]	[2]	[3]
HPLM + 10% dialyzed FBS, 0.000781 µM	70.8	78.3	105
HPLM + 10% dialyzed FBS, 0.00234 µM	73.2	107	112
HPLM + 10% dialyzed FBS, 0.00702 µM	75.9	92.8	113
HPLM + 10% dialyzed FBS, 0.0211 µM	66.4	101	110
HPLM + 10% dialyzed FBS, 0.0632 µM	69.1	108	120
HPLM + 10% dialyzed FBS, 0.19 µM	78.2	112	116
HPLM + 10% dialyzed FBS, 0.569 µM	75.8	131	119
HPLM + 10% dialyzed FBS, 1.71 µM	76.1	130	113
HPLM + 10% dialyzed FBS, 5.12 µM	80.8	121	118
HPLM + 10% dialyzed FBS, 15.4 µM	93.5	98.3	108
HPLM + 10% dialyzed FBS, 46.1 µM	68.3	105	97.2
RPMI 5 mM glucose + 10% FBS, 0.000781 µM	100	101	101
RPMI 5 mM glucose + 10% FBS, 0.00234 µM	94.4	108	97.6
RPMI 5 mM glucose + 10% FBS, 0.00702 µM	101	107	104
RPMI 5 mM glucose + 10% FBS, 0.0211 µM	93	110	106
RPMI 5 mM glucose + 10% FBS, 0.0632 µM	99	121	116
RPMI 5 mM glucose + 10% FBS, 0.19 µM	88	113	111
RPMI 5 mM glucose + 10% FBS, 0.569 µM	98.5	122	103
RPMI 5 mM glucose + 10% FBS, 1.71 µM	95.1	104	109
RPMI 5 mM glucose + 10% FBS, 5.12 µM	110	117	112
RPMI 5 mM glucose + 10% FBS, 15.4 µM	106	122	106
RPMI 5 mM glucose + 10% FBS, 46.1 µM	89.9	121	90.7
RPMI 5 mM glucose + 10% dialyzed FBS, 0.000781 µM	91.7	73	98.1
RPMI 5 mM glucose + 10% dialyzed FBS, 0.00234 µM	96.1	102	107
RPMI 5 mM glucose + 10% dialyzed FBS, 0.00702 µM	101	99.9	111
RPMI 5 mM glucose + 10% dialyzed FBS, 0.0211 µM	105	106	112
RPMI 5 mM glucose + 10% dialyzed FBS, 0.0632 µM	100	108	110
RPMI 5 mM glucose + 10% dialyzed FBS, 0.19 µM	104	111	119
RPMI 5 mM glucose + 10% dialyzed FBS, 0.569 µM	117	110	117
RPMI 5 mM glucose + 10% dialyzed FBS, 1.71 µM	92	106	113
RPMI 5 mM glucose + 10% dialyzed FBS, 5.12 µM	111	115	120
RPMI 5 mM glucose + 10% dialyzed FBS, 15.4 µM	90.8	95.7	110
RPMI 5 mM glucose + 10% dialyzed FBS, 46.1 µM	115	111	91.1

AUC of viability dose-response curve
Conditions	HPLM + 10% dialyzed FBS	RPMI 5 mM glucose + 10% FBS	RPMI 5 mM glucose + 10% dialyzed FBS
[4]	449	458	465
[5]	471	473	476

O=C1c2c(O)cc(O)cc2O[C@H](c2cc(O)c(O)c(O)c2)[C@H]1O
AUC of viability dose-response curve
Conditions	[4]	[5]	[6]
HPLM + 10% dialyzed FBS	430	456	426
RPMI 5 mM glucose + 10% FBS	461	452	410
RPMI 5 mM glucose + 10% dialyzed FBS	453	455	420

O=[S+]([O-])(F)Cc1ccccc1
[1], HPLM + 10% dialyzed FBS
Conditions	cell viability [%]
0.000781 µM	120
0.00234 µM	122
0.00702 µM	134
0.0211 µM	122
0.0632 µM	125
0.19 µM	50.5
0.569 µM	109
1.71 µM	133
5.12 µM	114
15.4 µM	115
46.1 µM	112

AUC of viability dose-response curve
Conditions	[4]	[5]	[6]
HPLM + 10% dialyzed FBS	434	446	455
RPMI 5 mM glucose + 10% FBS	468	448	440
RPMI 5 mM glucose + 10% dialyzed FBS	476	442	446
